Reference: patent US12053507B2, “Combination therapies for inhibiting sprout angiogenesis in the treatment of cancers” ([…] OF PHARMACY, LLC, priority 2010, dated 2024)
“Also recorded” adds a separate entry of the source.

How the values were obtained:
[1] = system: human dermal microvascular endothelial cells (HDMEC); experiment: microcarrier in vitro 3D sprout angiogenesis assay of HDMEC in fibrin gel; format: cell-based
Experimental: Human dermal microvascular endothelial cells (HDMEC) were isolated from human neonatal foreskins. Briefly, after initial harvest from minced trypsinized human foreskins, microvascular endothelial cells were further purified on a PERCOLL® density gradient. […] HDMEC were cultured on collagen type 1 coated tissue culture flasks in EGM (endothelial cell growth medium) consisting of EBM supplemented with 10 ng/ml epidermal growth factor, 0.4% bovine brain extract, 17.5 microg/ml dibutyryl cyclic AMP, and 1 microg/ml hydrocortisone in the presence of 30% normal human serum. […] All experiments were done with HDMEC below passage 10. Bovine aortic endothelial cells (BAEC) were obtained from BioWhittaker, Inc. (Walkersville, MD) and cultured according to manufacturer's instruction. BAEC between passage 4 and 8 were used for experiments.
Gelatin-coated CYTODEX®-3 microcarrier beads were prepared as described by the manufacturer. Approximately 80,000 sterile microcarrier beads were washed, resuspended in EGM, and added to approximately 4.5 million endothelial cells (HDMEC or BAEC). The beads and cells were mixed by gentle swirling, incubated at 37° C. for 6 hr, and then rotated for 24-36 hr on an orbital mixer in a 37° C. oven to generate endothelial cell-loaded microcarrier beads (EC-beads).
FIGS. 1A-1C illustrate a study of human microvascular endothelial cell angiogenesis, according to some embodiments. A microcarrier, in vitro angiogenesis assay, previously designed to investigate bovine pulmonary artery endothelial cell angiogenic behavior in bovine fibrin gels, was modified for the study of human microvascular endothelial cell angiogenesis. The HDMEC were isolated from human neonatal foreskins and used, as described above, and images were captured at various magnifications, where the effect of angiogenic factors on sprout angiogenesis was quantified visually by counting the number and percent of EC-beads with capillary sprouts.
An isotonic 1.5 mg/ml collagen solution was prepared by mixing sterile native bovine type I &III collagen (VITROGEN®, Collagen Biomaterials, Palo Alto, CA) in 5XM199 medium and distilled water. The pH was adjusted to 7.4 using 1N NaOH.
For experiments using RGD peptides, EC-beads were firstly incubated with vary concentrations of peptides for one hour and then were added to the ECM solutions. About 500 EC-beads were then added to the ECM protein solutions, followed by the addition of 0.5 U/ml human thrombin. A 0.3 ml aliquot of each suspension was immediately added to appropriate wells of a 24-well tissue culture plate. After gelation, 1 ml of fresh assay medium (EBM supplemented with 20% normal human serum for HDMEC or EBM supplemented with 10% fetal bovine serum for BAEC) was added to each well.
FIGS. 1B and 1C show how the angiogenic response was monitored visually and recorded by video image capture. Specifically, capillary sprout formation was observed and recorded with a NIKON® Diaphot-TMD inverted microscope (Nikon Inc., Melville, NY), equipped with an incubator housing with a NIKON® NP-2 thermostat and Sheldon #2004 carbon dioxide flow mixer. […] The effect of angiogenic factors on sprout angiogenesis was quantified visually by determining the number and percent of EC-beads with capillary sprouts. 100-200 beads (five random low power fields) in each of triplicate wells were counted for each experimental condition. […]

αvβ3 integrin = αvβ3 integrin (Homo sapiens, UniProt P05106+P06756); conditions: cited from earlier work
VEGF = conditions: colorectal cancer; in combination with standard Saltz regime of irinotecan, 5-fluorouracil, and leucovorin; cited from earlier work
[2] = single agent, HDMEC in 3D fibrin matrix, stimulated with VEGF and bFGF

αvβ3 integrin, sequence (P06756 31-889 limits assumed): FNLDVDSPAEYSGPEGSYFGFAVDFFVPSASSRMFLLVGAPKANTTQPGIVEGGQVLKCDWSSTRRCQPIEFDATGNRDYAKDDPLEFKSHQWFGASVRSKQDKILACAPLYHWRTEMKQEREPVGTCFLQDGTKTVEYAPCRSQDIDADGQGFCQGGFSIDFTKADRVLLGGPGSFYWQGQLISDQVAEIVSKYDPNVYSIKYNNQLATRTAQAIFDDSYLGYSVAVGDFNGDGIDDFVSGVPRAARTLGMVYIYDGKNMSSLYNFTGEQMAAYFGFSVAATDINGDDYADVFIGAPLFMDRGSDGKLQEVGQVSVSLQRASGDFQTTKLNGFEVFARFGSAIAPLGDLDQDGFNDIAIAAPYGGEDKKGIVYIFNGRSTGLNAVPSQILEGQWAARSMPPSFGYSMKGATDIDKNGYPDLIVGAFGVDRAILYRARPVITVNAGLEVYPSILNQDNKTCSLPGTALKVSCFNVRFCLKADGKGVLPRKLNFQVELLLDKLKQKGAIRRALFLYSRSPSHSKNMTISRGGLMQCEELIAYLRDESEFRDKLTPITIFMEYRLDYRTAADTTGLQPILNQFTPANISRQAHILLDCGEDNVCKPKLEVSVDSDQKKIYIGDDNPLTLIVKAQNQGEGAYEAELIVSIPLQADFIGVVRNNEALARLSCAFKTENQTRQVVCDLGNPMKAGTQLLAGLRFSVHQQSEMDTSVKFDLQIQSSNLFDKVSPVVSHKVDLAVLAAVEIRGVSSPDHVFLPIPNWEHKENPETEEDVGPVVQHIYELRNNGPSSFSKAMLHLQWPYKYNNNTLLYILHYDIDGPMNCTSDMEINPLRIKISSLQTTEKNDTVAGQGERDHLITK
αvβ3 integrin, sequence (P06756 891-1048 partner limits assumed): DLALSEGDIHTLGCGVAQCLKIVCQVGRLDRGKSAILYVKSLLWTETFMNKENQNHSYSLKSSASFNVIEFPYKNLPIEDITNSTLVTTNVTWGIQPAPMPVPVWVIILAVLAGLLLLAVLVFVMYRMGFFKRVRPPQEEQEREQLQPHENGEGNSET
αvβ3 integrin, sequence (P05106 27-788): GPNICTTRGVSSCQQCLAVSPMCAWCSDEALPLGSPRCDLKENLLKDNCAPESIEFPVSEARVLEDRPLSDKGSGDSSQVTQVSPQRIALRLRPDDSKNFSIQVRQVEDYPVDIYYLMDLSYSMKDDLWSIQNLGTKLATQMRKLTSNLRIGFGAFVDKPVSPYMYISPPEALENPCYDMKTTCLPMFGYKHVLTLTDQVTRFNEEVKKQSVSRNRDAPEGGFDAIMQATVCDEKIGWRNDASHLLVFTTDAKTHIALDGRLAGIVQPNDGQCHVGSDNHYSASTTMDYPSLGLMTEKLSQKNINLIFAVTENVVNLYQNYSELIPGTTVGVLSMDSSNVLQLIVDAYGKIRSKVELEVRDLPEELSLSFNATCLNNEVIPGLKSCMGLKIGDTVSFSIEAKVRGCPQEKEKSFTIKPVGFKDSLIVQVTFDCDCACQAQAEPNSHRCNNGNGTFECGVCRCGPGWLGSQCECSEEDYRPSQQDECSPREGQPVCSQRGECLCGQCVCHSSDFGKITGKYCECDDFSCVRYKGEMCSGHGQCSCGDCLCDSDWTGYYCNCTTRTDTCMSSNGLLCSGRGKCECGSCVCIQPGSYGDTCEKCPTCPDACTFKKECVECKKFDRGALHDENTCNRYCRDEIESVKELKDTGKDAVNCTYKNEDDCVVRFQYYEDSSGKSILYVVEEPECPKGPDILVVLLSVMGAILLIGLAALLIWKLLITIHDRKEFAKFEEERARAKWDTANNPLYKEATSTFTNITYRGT
VEGF, sequence (P15692 207-311 limits assumed): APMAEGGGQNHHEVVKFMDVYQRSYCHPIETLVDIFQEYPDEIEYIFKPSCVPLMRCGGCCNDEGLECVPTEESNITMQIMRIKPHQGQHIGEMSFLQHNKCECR

Row | Substance | inhibition of sprout angiogenesis [1, 2] | inhibition of sprout angiogenesis ([1]; echistatin alone at 0.1 μg/ml, HDMEC in fibrin) | inhibition of sprout angiogenesis ([1]; echistatin alone, 1 μg/ml to 10 μg/ml, HDMEC in fibrin) | inhibition of sprout angiogenesis ([1]; single agent, HDMEC in 3D fibrin matrix, stimulated with VEGF and bFGF, listed as Echistatin) | αvβ3 integrin antagonism (αvβ3 integrin) | increase of survival time (VEGF)
1 | cyclo (Arg-Gly-Asp-d-Phe-Cys) [cRGDfC, reference compound] | dose dependently inhibited sprout angiogenesis |  |  |  |  | 
2 | echistatin (QCESGPCCRNCKFLKEGTICKRARGDDMDDYCNGKTCDCPRNPHKGPAT; listed as Echis carinatus) | inhibition of sprout angiogenesis; also recorded: dose dependently inhibited sprout angiogenesis | little inhibitory effect | dose dependently | dose dependently inhibits sprout angiogenesis | potent irreversible αvβ3 integrin antagonist | 
3 | AVASTATIN® (bevacizumab): human monoclonal antibody to VEGF |  |  |  |  |  | more than 30%
